US20220125051A1, “PRE-HARVEST DESICCATION METHOD” (SYNGENTA CROP PROTECTION AG, priority 2019, published 2022)
Like-named read-outs stand apart in the source and are kept apart here.

How the values were obtained:
Experiment in all cases: Post-emergence efficacy, Method A
Assay type in all cases: in vivo
[1] = test system: Digitaria sanguinalis (DIGSA); settings: Digitaria sanguinalis, post-emergence, 312 h, evaluated after 13 days
Procedure, shortened: (§1)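 Sow in standard soil; grow 14 d under glasshouse control (24/16 °C, 14 h light, 65% humidity). Spray post-emergence with compound formulated in acetone/IF50, diluted in Empicol ESC70 (0.25% or 1%) + 1% ammonium sulphate. Return to glasshouse, water twice daily, score at 13 d on a 0–100 damage scale.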

[2] = test system: Amaranthus palmeri (AMAPA); settings: Amaranthus palmeri, post-emergence, 312 h, evaluated after 13 days
Procedure, shortened: as §1

[3] = test system: Chenopodium album (CHEAL); settings: Chenopodium album, post-emergence, 312 h, evaluated after 13 days
Procedure, shortened: as §1

[4] = test system: Ipomoea hederacea (IPOHE); settings: Ipomoea hederacea, post-emergence, 312 h, evaluated after 13 days
Procedure, shortened: as §1

Lolium perenne (LOLPE) = settings: Lolium perenne, post-emergence, 312 h, evaluated after 13 days
Procedure, shortened: as §1

Eleusine indica (ELEIN) = settings: Eleusine indica, post-emergence, 312 h, evaluated after 13 days
Procedure, shortened: as §1

Setaria faberi (SETFA) = settings: Setaria faberi, post-emergence, 312 h, evaluated after 13 days
Procedure, shortened: as §1

[5] = test system: Euphorbia heterophylla (EPHHL); settings: Euphorbia heterophylla, post-emergence, 312 h, evaluated after 13 days
Procedure, shortened: as §1

[6] = test system: Echinochloa crus-galli (ECHCG); settings: Echinochloa crus-galli, post-emergence, 312 h, evaluated after 13 days
Procedure, shortened: as §1

[7] = Application rate 500 g/Ha, 100=total damage to plant, 0=no damage to plant, read-out: Control of weed species after post-emergence application, DIGSA
[8] = Application rate 500 g/Ha, 100=total damage to plant, 0=no damage to plant, read-out: Control of weed species after post-emergence application, AMAPA
[9] = Application rate 500 g/Ha, 100=total damage to plant, 0=no damage to plant, read-out: Control of weed species after post-emergence application, CHEAL
[10] = Application rate 500 g/Ha, 100=total damage to plant, 0=no damage to plant, read-out: Control of weed species after post-emergence application, IPOHE
[11] = Application rate 500 g/Ha, 100=total damage to plant, 0=no damage to plant, read-out: Control of weed species after post-emergence application, LOLPE
[12] = Application rate 500 g/Ha, 100=total damage to plant, 0=no damage to plant, read-out: Control of weed species after post-emergence application, ELEIN
[13] = Application rate 500 g/Ha, 100=total damage to plant, 0=no damage to plant, read-out: Control of weed species after post-emergence application, SETFA
[14] = Application rate 500 g/Ha, 100=total damage to plant, 0=no damage to plant, read-out: Control of weed species after post-emergence application, EPHHL
[15] = Application rate 500 g/Ha, 100=total damage to plant, 0=no damage to plant, read-out: Control of weed species after post-emergence application, ECHCG

Compound | pest or weed control at 500 g/ha [1, 7] | pest or weed control at 500 g/ha [2, 8] | pest or weed control at 500 g/ha [3, 9] | pest or weed control at 500 g/ha [4, 10] | pest or weed control at 500 g/ha (Lolium perenne (LOLPE); [11]) | pest or weed control at 500 g/ha (Eleusine indica (ELEIN); [12]) | pest or weed control at 500 g/ha (Setaria faberi (SETFA); [13]) | pest or weed control at 500 g/ha [5, 14] | pest or weed control at 500 g/ha [6, 15] | also measured
CC(C)(C[n+]1ccc(-c2ncccn2)cn1)S(=O)(=O)[O-] [Compound A114, 2-methyl-1-(4-pyrimidin-2-ylpyridazin-1-ium-1-yl)propane-2-sulfonate] | 80% | 100% | 60% | 60% | 70% | 90% | 40% | 80% | 60% | 
CNS(=O)(=O)c1cnc(-c2cc[n+](CCC(=O)O)nc2)nc1 [Compound A209] |  |  |  |  |  |  |  |  |  | pest or weed control at 125 g/ha ([1]; Application Rate 125 g/Ha, Method A, read-out: Control of weed species after post-emergence application, DIGSA (100=total damage to plant; 0=no damage to plant)): 30%; pest or weed control at 125 g/ha ([2]; Application Rate 125 g/Ha, Method A, read-out: Control of weed species after post-emergence application, AMAPA (100=total damage to plant; 0=no damage to plant)): 30%; pest or weed control at 125 g/ha ([3]; Application Rate 125 g/Ha, Method A, read-out: Control of weed species after post-emergence application, CHEAL (100=total damage to plant; 0=no damage to plant)): 10%; pest or weed control at 125 g/ha ([4]; Application Rate 125 g/Ha, Method A, read-out: Control of weed species after post-emergence application, IPOHE (100=total damage to plant; 0=no damage to plant)): 0%; pest or weed control at 125 g/ha (Lolium perenne (LOLPE); Application Rate 125 g/Ha, Method A, read-out: Control of weed species after post-emergence application, LOLPE (100=total damage to plant; 0=no damage to plant)): 10%; pest or weed control at 125 g/ha (Eleusine indica (ELEIN); Application Rate 125 g/Ha, Method A, read-out: Control of weed species after post-emergence application, ELEIN (100=total damage to plant; 0=no damage to plant)): 0%; pest or weed control at 125 g/ha (Setaria faberi (SETFA); Application Rate 125 g/Ha, Method A, read-out: Control of weed species after post-emergence application, SETFA (100=total damage to plant; 0=no damage to plant)): 20%; pest or weed control at 125 g/ha ([5]; Application Rate 125 g/Ha, Method A, read-out: Control of weed species after post-emergence application, EPHHL (100=total damage to plant; 0=no damage to plant)): 0%; pest or weed control at 125 g/ha ([6]; Application Rate 125 g/Ha, Method A, read-out: Control of weed species after post-emergence application, ECHCG (100=total damage to plant; 0=no damage to plant)): 10%
O=S(=O)([O-])CC[n+]1ccc(-c2ncc(F)cn2)cn1 [Compound A19] | 50% | 100% | 60% | 40% | 20% | 60% | 60% | 60% | 40% | 
O=S(=O)([O-])CCC[n+]1ccc(-c2cncc(Cl)n2)cn1 [Compound A84] | 50% | 100% | 80% | 30% | 30% | 20% | 50% | 90% | 20% | 
NC(=O)c1cnc(-c2cc[n+](CCC(=O)O)nc2)cn1 [Compound A202, 3-[4-(5-carbamoylpyrazin-2-yl)pyridazin-1-ium-1-yl]propanoic acid 2,2,2-trifluoroacetate] |  |  |  |  |  |  |  |  |  | pest or weed control at 500 g/ha ([1]; Application Rate 500 g/Ha, Method A, read-out: Control of weed species after post-emergence application, DIGSA (100=total damage to plant; 0=no damage to plant)): 60%; pest or weed control at 500 g/ha ([2]; Application Rate 500 g/Ha, Method A, read-out: Control of weed species after post-emergence application, AMAPA (100=total damage to plant; 0=no damage to plant)): 100%; pest or weed control at 500 g/ha ([3]; Application Rate 500 g/Ha, Method A, read-out: Control of weed species after post-emergence application, CHEAL (100=total damage to plant; 0=no damage to plant)): 90%; pest or weed control at 500 g/ha ([4]; Application Rate 500 g/Ha, Method A, read-out: Control of weed species after post-emergence application, IPOHE (100=total damage to plant; 0=no damage to plant)): 60%; pest or weed control at 500 g/ha (Lolium perenne (LOLPE); Application Rate 500 g/Ha, Method A, read-out: Control of weed species after post-emergence application, LOLPE (100=total damage to plant; 0=no damage to plant)): 70%; pest or weed control at 500 g/ha (Eleusine indica (ELEIN); Application Rate 500 g/Ha, Method A, read-out: Control of weed species after post-emergence application, ELEIN (100=total damage to plant; 0=no damage to plant)): 20%; pest or weed control at 500 g/ha (Setaria faberi (SETFA); Application Rate 500 g/Ha, Method A, read-out: Control of weed species after post-emergence application, SETFA (100=total damage to plant; 0=no damage to plant)): 70%; pest or weed control at 500 g/ha ([5]; Application Rate 500 g/Ha, Method A, read-out: Control of weed species after post-emergence application, EPHHL (100=total damage to plant; 0=no damage to plant)): 100%; pest or weed control at 500 g/ha ([6]; Application Rate 500 g/Ha, Method A, read-out: Control of weed species after post-emergence application, ECHCG (100=total damage to plant; 0=no damage to plant)): 80%
